# Reference: patent US20260070945A1, “MACROCYCLIC IMMUNOMODULATORS” (Bristol-Myers Squibb Company, priority 2022, published 2026)
# *1 amine or outer side, *2 acyl side, *3 side chain or, on linkers, in order; H or OH if unused. Where a SMILES comes first, the peptide text is derived from it. Bridges are numbered along the chain shown (N, C = ends). [ ]: non-standard residue; d: D form. The star is where a group is joined. ξ: configuration not given here. Phe(3-CF3) = N[C@@H](Cc1cccc(C(F)(F)F)c1)C(=O)O; Ala(morpholin-4-yl) = N[C@@H](CN1CCOCC1)C(=O)O; Phe(4-COOH) = N[C@@H](Cc1ccc(C(=O)O)cc1)C(=O)O; Trp(1-Me) = Cn1cc(C[C@H](N)C(=O)O)c2ccccc21; Bip = N[C@@H](Cc1ccc(-c2ccccc2)cc1)C(=O)O; NH(CH2)14COOH = O=C(O)CCCCCCCCCCCCCCN*; Phe(3-Me) = Cc1cccc(C[C@H](N)C(=O)O)c1; γGlu = O=C(O)[C@H](CCC(=O)[*:2])N[*:1]; NH(CH2)12COOH = O=C(O)CCCCCCCCCCCCN*; Val(3-OH) = CC(C)(O)[C@H](N)C(=O)O; aIle = CC[C@@H](C)[C@H](N)C(=O)O; hArg = N=C(N)NCCCC[C@H](N)C(=O)O; 3Pal = N[C@@H](Cc1cccnc1)C(=O)O; Cha = N[C@@H](CC1CCCCC1)C(=O)O; Cit = NC(=O)NCCC[C@H](N)C(=O)O; Ile(3ξ) = CCC(C)[C@H](N)C(=O)O; Thr(3ξ) = CC(O)[C@H](N)C(=O)O; 12Ado = NCCCCCCCCCCCC(=O)O; Carboxymethyl = O=C(O)C*; NMeA = CN[C@@H](C)C(=O)O; Orn = NCCC[C@H](N)C(=O)O; Aun = NCCCCCCCCCCC(=O)O; Dab = NCC[C@H](N)C(=O)O; Dap = NC[C@H](N)C(=O)O; AEEA = NCCOCCOCC(=O)O; CF3 = FC(F)(F)*
# Molecular target: T1, PD-1/PD-L1 interaction (PE-labeled human PD-L1-Ig binding to Jurkat cell line over-expressing human PD-1) (Homo sapiens, UniProt Q15116)
# T1 construct: expressed in transfected cells; host or cells: Jurkat
# Test: Jurkat-PD-1 Cell Binding High-Content Screening Assay (CBA)
# Conditions: Jurkat-hPD-1 cells, PE-labeled PD-L1-Ig 20 nM final; read-out: Jurkat HPD1 PDL1 IC50
# Summary of the method: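 Binding of 20 nM (final) PE-tagged PD-L1-Ig to compound-pretreated Jurkat-hPD-1 cells was measured by high-content imaging after 1 h. Pretreatment ran 2 h at 37 °C in DMEM with 10% fetal calf serum.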
# T1 sequence (Q15116 25-288): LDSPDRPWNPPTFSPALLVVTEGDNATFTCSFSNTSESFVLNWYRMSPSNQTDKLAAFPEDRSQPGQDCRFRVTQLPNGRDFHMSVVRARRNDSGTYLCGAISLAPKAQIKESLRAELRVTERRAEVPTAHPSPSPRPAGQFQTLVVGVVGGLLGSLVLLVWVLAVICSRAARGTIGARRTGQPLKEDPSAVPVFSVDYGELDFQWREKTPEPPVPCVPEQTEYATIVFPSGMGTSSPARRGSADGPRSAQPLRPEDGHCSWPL
row,SMILES,IC50
1,CC[C@@H](C)[C@@H]1NC(=O)[C@H](Cc2ccc(-c3ccccc3)cc2)NC(=O)[C@H](C(C)C)NC(=O)[C@H](Cc2c[nH]c3ccccc23)NC(=O)[C@H](CC(=O)O)NC(=O)[C@H](Cc2ccc(OCC(=O)O)cc2)NC(=O)[C@H](CCCNC(N)=O)NC(=O)CSC[C@@H](C(=O)N[C@H](CC(N)=O)C(=O)NCCOCCOCC(=O)N[C@@H](CCC(=O)NCCOCCOCC(=O)N[C@@H](CCC(=O)NCCOCCOCC(=O)N[C@@H](CCCN)C(=O)NCCCCCCCCCCC(=O)O)C(=O)O)C(=O)O)NC(=O)[C@H](CO)NC(=O)[C@H](C(C)C)NC(=O)[C@H](CC2CCCCC2)NC(=O)[C@H](CC(N)=O)NC(=O)[C@@H](CC(C)C)NC(=O)[C@H](C)N(C)C1=O [Example 2024] ({CH2CO}-[Cit]Y(Carboxymethyl)DWV[Bip][aIle][NMeA][dL]N[Cha]VSC[dN][AEEA][γGlu][AEEA][γGlu][AEEA][Orn][Aun]-OH; thioether N-14),38.3 nM
2,CC(C)C[C@H]1NC(=O)[C@H](C)N(C)C(=O)[C@H](Cc2ccc(C(=O)O)cc2)NC(=O)[C@H](Cc2ccc(-c3ccccc3)cc2)NC(=O)[C@H](Cc2ccc(C(=O)O)cc2)NC(=O)[C@H](Cc2cccc(C(F)(F)F)c2)NC(=O)[C@H](CC(=O)O)NC(=O)[C@H](Cc2ccc(OCC(=O)O)cc2)NC(=O)[C@H](CN2CCOCC2)NC(=O)CSC[C@@H](C(=O)N[C@@H](CCN)C(=O)NCCCCCCCCCCCCC(=O)O)NC(=O)[C@H](CCC(=O)O)NC(=O)[C@H](C(C)C)NC(=O)[C@H](CC2CCCCC2)NC(=O)[C@H](CCN)NC1=O [Example 1198] ({CH2CO}-[Ala(morpholin-4-yl)]Y(Carboxymethyl)D[Phe(3-CF3)][Phe(4-COOH)][Bip][Phe(4-COOH)][NMeA][dL][Dab][Cha]VEC[Dab]-{NH(CH2)12COOH}; thioether N-14),19.6 nM
3,Cc1cccc(C[C@@H]2NC(=O)[C@H](CC(=O)O)NC(=O)[C@H](Cc3ccc(C(=O)O)cc3)NC(=O)[C@H](Cc3ccc(OCC(=O)O)cc3)NC(=O)CSC[C@@H](C(=O)N[C@@H](CCN)C(=O)NCCOCCOCC(=O)NCCOCCOCC(=O)NCCCCCCCCCCCCC(=O)O)NC(=O)[C@H](CO)NC(=O)[C@H](C(C)(C)O)NC(=O)[C@H](CC3CCCCC3)NC(=O)[C@H](CCN)NC(=O)[C@@H](CC(C)C)NC(=O)[C@H](C)N(C)C(=O)[C@H](CCC(N)=O)NC(=O)[C@H](Cc3ccc(-c4ccccc4)cc3)NC(=O)[C@H](Cc3ccc(C(=O)O)cc3)NC2=O)c1 [Example 1105] ({CH2CO}-Y(Carboxymethyl)[Phe(4-COOH)]D[Phe(3-Me)][Phe(4-COOH)][Bip]Q[NMeA][dL][Dab][Cha][Val(3-OH)]SC[Dab][AEEA][AEEA]-{NH(CH2)12COOH}; thioether N-14),7.2 nM
4,Cc1cccc(C[C@@H]2NC(=O)[C@H](CC(=O)O)NC(=O)[C@H](Cc3ccc(OCC(=O)O)cc3)NC(=O)[C@H]([C@@H](C)O)NC(=O)CSC[C@@H](C(=O)N[C@@H](CC(N)=O)C(=O)NCCCCCCCCCCC(=O)O)NC(=O)[C@H](CCC(=O)O)NC(=O)[C@H](C(C)(C)O)NC(=O)[C@H](CC3CCCCC3)NC(=O)[C@H](CCN)NC(=O)[C@@H](CC(C)C)NC(=O)[C@H](C)N(C)C(=O)[C@H](Cc3ccc(OCC(=O)O)cc3)NC(=O)[C@H](Cc3ccc(-c4ccccc4)cc3)NC(=O)[C@H](Cc3ccc(OCC(=O)O)cc3)NC2=O)c1 [Example 1419] ({CH2CO}-TY(Carboxymethyl)D[Phe(3-Me)]Y(Carboxymethyl)[Bip]Y(Carboxymethyl)[NMeA][dL][Dab][Cha][Val(3-OH)]ECN[Aun]-OH; thioether N-14),186 nM
5,Cc1cccc(C[C@@H]2NC(=O)[C@H](CC(=O)O)NC(=O)[C@H](Cc3ccc(C(=O)O)cc3)NC(=O)[C@H](Cc3cccnc3)NC(=O)CSC[C@@H](C(=O)N[C@@H](CCN)C(=O)NCCCCCCCCCCC(=O)O)NC(=O)[C@H](CO)NC(=O)[C@H](C(C)(C)O)NC(=O)[C@H](CC3CCCCC3)NC(=O)[C@H](CCN)NC(=O)[C@@H](CC(C)C)NC(=O)[C@H](C)N(C)C(=O)[C@H](Cc3ccc(OCC(=O)O)cc3)NC(=O)[C@H](Cc3ccc(-c4ccccc4)cc3)NC(=O)[C@H](Cc3ccc(OCC(=O)O)cc3)NC2=O)c1 [Example 1283] ({CH2CO}-[3Pal][Phe(4-COOH)]D[Phe(3-Me)]Y(Carboxymethyl)[Bip]Y(Carboxymethyl)[NMeA][dL][Dab][Cha][Val(3-OH)]SC[Dab][Aun]-OH; thioether N-14),15.9 nM
6,Cc1cccc(C[C@@H]2NC(=O)[C@H](CC(=O)O)NC(=O)[C@H](Cc3ccc(C(=O)O)cc3)NC(=O)[C@H]([C@@H](C)O)NC(=O)CSC[C@@H](C(=O)N[C@@H](CCN)C(=O)NCCOCCOCC(=O)NCCOCCOCC(=O)NCCCCCCCCCCCCCCC(=O)O)NC(=O)[C@H](CCC(=O)O)NC(=O)[C@H](C(C)(C)O)NC(=O)[C@H](CC3CCCCC3)NC(=O)[C@H](CCN)NC(=O)[C@@H](CC(C)C)NC(=O)[C@H](C)N(C)C(=O)[C@H](Cc3ccc(C(=O)O)cc3)NC(=O)[C@H](Cc3ccc(-c4ccccc4)cc3)NC(=O)[C@H](Cc3ccc(C(=O)O)cc3)NC2=O)c1 [Example 1431] ({CH2CO}-T[Phe(4-COOH)]D[Phe(3-Me)][Phe(4-COOH)][Bip][Phe(4-COOH)][NMeA][dL][Dab][Cha][Val(3-OH)]EC[Dab][AEEA][AEEA]-{NH(CH2)14COOH}; thioether N-14),962 nM

# The next lines start with the values.
row,IC50,SMILES
1,343 nM,Cc1cccc(C[C@@H]2NC(=O)[C@H](CC(=O)O)NC(=O)[C@H](Cc3ccc(C(=O)O)cc3)NC(=O)[C@H](Cc3ccc(OCC(=O)O)cc3)NC(=O)CSC[C@@H](C(=O)NCCCCCCCCCCC(=O)O)NC(=O)[C@H](C(C)O)NC(=O)[C@H](C(C)C)NC(=O)[C@H](CC3CCCCC3)NC(=O)[C@H](CCN)NC(=O)[C@@H](CC(C)C)NC(=O)[C@H](C)N(C)C(=O)[C@H](Cc3ccc(C(=O)O)cc3)NC(=O)[C@H](Cc3ccc(-c4ccccc4)cc3)NC(=O)[C@H](CC(C)C)NC2=O)c1 (stereo partly drawn) [Example 2332] ({CH2CO}-Y(Carboxymethyl)[Phe(4-COOH)]D[Phe(3-Me)]L[Bip][Phe(4-COOH)][NMeA][dL][Dab][Cha]V[Thr(3ξ)]C[Aun]-OH; thioether N-14)
2,570 nM,CCC(C)[C@@H]1NC(=O)[C@H](Cc2ccc(-c3ccccc3)cc2)NC(=O)[C@H](C(C)C)NC(=O)[C@H](Cc2cn(C)c3ccccc23)NC(=O)[C@H](CC(=O)O)NC(=O)[C@H](Cc2ccc(OCC(=O)O)cc2)NC(=O)[C@H](C(C)O)NC(=O)CSC[C@@H](C(=O)N[C@@H](CCCN)C(=O)NCCCCCCCCCCC(=O)O)NC(=O)[C@H](C(C)O)NC(=O)[C@H](C(C)C)NC(=O)[C@H](CC2CCCCC2)NC(=O)[C@H](CCN)NC(=O)[C@@H](CC(C)C)NC(=O)[C@H](C)N(C)C1=O (stereo partly drawn) [Example 2416] ({CH2CO}-[Thr(3ξ)]Y(Carboxymethyl)D[Trp(1-Me)]V[Bip][Ile(3ξ)][NMeA][dL][Dab][Cha]V[Thr(3ξ)]C[Orn][Aun]-OH; thioether N-14)
3,16.3 nM,CC(C)C[C@@H]1NC(=O)[C@H](Cc2c[nH]c3ccccc23)NC(=O)[C@H](CC(=O)O)NC(=O)[C@H](Cc2ccc(OCC(=O)O)cc2)NC(=O)[C@H](CCCCNC(=N)N)NC(=O)CSC[C@@H](C(=O)NCC(=O)NCCOCCOCC(=O)N[C@@H](CCCN)C(=O)NCCCCCCCCCCC(=O)O)NC(=O)[C@H](CCCNC(N)=O)NC(=O)[C@H](C(C)C)NC(=O)[C@H](CC2CCCCC2)NC(=O)[C@H](CCN)NC(=O)[C@@H](CC(C)C)NC(=O)[C@H](C)N(C)C(=O)[C@H](C(C)C)NC(=O)[C@H](Cc2ccc(-c3ccccc3)cc2)NC1=O [Example 2180] ({CH2CO}-[hArg]Y(Carboxymethyl)DWL[Bip]V[NMeA][dL][Dab][Cha]V[Cit]CG[AEEA][Orn][Aun]-OH; thioether N-14)
4,15.5 nM,CCC(C)[C@@H]1NC(=O)[C@H](Cc2ccc(-c3ccccc3)cc2)NC(=O)[C@H](CC(C)C)NC(=O)[C@H](Cc2c[nH]c3ccccc23)NC(=O)[C@H](CC(=O)O)NC(=O)[C@H](Cc2ccc(C(=O)O)cc2)NC(=O)[C@H](Cc2ccc(OCC(=O)O)cc2)NC(=O)CSC[C@@H](C(=O)N[C@@H](CC(N)=O)C(=O)NCCOCCOCC(=O)N[C@@H](CN)C(=O)NCCCCCCCCCCC(=O)O)NC(=O)[C@H](CO)NC(=O)[C@H](C(C)C)NC(=O)[C@H](CC2CCCCC2)NC(=O)[C@H](CCN)NC(=O)[C@@H](CC(C)C)NC(=O)[C@H](C)N(C)C1=O (stereo partly drawn) [Example 2075] ({CH2CO}-Y(Carboxymethyl)[Phe(4-COOH)]DWL[Bip][Ile(3ξ)][NMeA][dL][Dab][Cha]VSCN[AEEA][Dap][Aun]-OH; thioether N-14)
5,20.3 nM,CC(C)C[C@H]1NC(=O)[C@H](C)N(C)C(=O)[C@H](C(C)C)NC(=O)[C@H](Cc2ccc(-c3ccccc3)cc2)NC(=O)[C@H](C(C)C)NC(=O)[C@H](Cc2c[nH]c3ccccc23)NC(=O)[C@H](CC(=O)O)NC(=O)[C@H](Cc2ccc(OCC(=O)O)cc2)NC(=O)[C@H](CCCNC(=N)N)NC(=O)CSC[C@@H](C(=O)N[C@H](CC(N)=O)C(=O)NCCOCCOCC(=O)NCCCCCCCCCCCC(=O)O)NC(=O)[C@H](CCCCN)NC(=O)[C@H](C(C)C)NC(=O)[C@H](CC2CCCCC2)NC(=O)[C@H](CCN)NC1=O [Example 2204] ({CH2CO}-RY(Carboxymethyl)DWV[Bip]V[NMeA][dL][Dab][Cha]VKC[dN][AEEA][12Ado]-OH; thioether N-14)

# Same assay, conditions: PE-labeled PD-L1-Ig 20 nM final, Jurkat-hPD-1 cells; read-out: Jurkat HPD1 PDL1 IC50
row,SMILES,IC50
1,CC(=O)NCCCC[C@@H]1NC(=O)[C@H](C(C)(C)O)NC(=O)[C@H](CC2CCCCC2)NC(=O)[C@H](CCN)NC(=O)[C@@H](CC(C)C)NC(=O)[C@H](C)N(C)C(=O)[C@H](CCC(N)=O)NC(=O)[C@H](Cc2ccc(-c3ccccc3)cc2)NC(=O)[C@H](Cc2ccc(C(=O)O)cc2)NC(=O)[C@H](Cc2cccc(C)c2)NC(=O)[C@H](CC(=O)O)NC(=O)[C@H](Cc2ccc(OCC(=O)O)cc2)NC(=O)[C@H](Cc2ccc(OC(F)(F)F)cc2)NC(=O)CSC[C@@H](C(=O)N[C@@H](CCN)C(=O)NCCCCCCCCCCCCC(=O)O)NC1=O [Example 2620] ({CH2CO}-Y(CF3)Y(Carboxymethyl)D[Phe(3-Me)][Phe(4-COOH)][Bip]Q[NMeA][dL][Dab][Cha][Val(3-OH)]K(Ac)C[Dab]-{NH(CH2)12COOH}; thioether N-14),72 nM
